Like-named read-outs stand apart in the source and are kept apart here. Bridge positions count the residues as written; N and C are the ends. Square brackets hold non-standard residues; d marks the D form. Peptide text beside a SMILES is read from it.
Columns and labels:
[1] = molecular target: T1, human V1bR (Homo sapiens, UniProt P47901); experiment: Radioligand displacement of [3H] vasopressin, human V1bR membranes; type: binding
T1 construct: expressed in transfected cells; host or cells: HEK293 cells, transient (jetPRIME)
T1 sequence (P47901 1-424): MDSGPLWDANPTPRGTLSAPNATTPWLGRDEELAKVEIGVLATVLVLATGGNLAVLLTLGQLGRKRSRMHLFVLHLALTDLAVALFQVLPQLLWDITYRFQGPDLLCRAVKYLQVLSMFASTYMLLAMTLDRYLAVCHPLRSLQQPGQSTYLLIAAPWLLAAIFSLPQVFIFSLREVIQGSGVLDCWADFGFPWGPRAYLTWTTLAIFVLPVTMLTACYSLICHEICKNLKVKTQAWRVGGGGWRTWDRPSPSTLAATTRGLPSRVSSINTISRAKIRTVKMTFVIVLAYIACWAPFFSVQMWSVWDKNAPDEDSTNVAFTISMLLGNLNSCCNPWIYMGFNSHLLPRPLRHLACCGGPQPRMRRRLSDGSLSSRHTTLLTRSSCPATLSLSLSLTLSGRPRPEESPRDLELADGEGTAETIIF
Description: Unbound ligands were washed off (Skatron Cell Harvester). […] For the displacement at the human OTR, V1aR, V1bR and V2R the normalization to 100% refers on average to 0.49, 1.4, 0.36, 1.1 pmoles of ligand bound per milligram of membrane for human OTR, V1aR, V1bR and V2R, respectively. […] For the displacement at the insect receptors the normalization to 100% refers on average to 0.65 and 0.69 pmoles of ligand bound per milligram of membrane for inotocin receptor from L. niger and T. castaneum, respectively. Bindings of [^3H] inotocin to membranes (10 μg) expressing INTR from L. niger, or [^3H] inotocin to membranes (10 μg) expressing INTR from T. castaneum, respectively, were assayed for displacement with an excess of inotocin (10^−11 to 10^−5 M) (n ≥ 3, except where otherwise stated). […] Specific binding was calculated by subtracting the non-specific binding from the total binding. IC50 values were obtained by fitting the data to a three-parameter logistic Hill equation. Inhibition constants (Ki) were calculated from IC50 using the method by Cheng and Prusoff[65].

[2] = molecular target: T2, human V2R (Homo sapiens, UniProt P30518); experiment: Radioligand displacement of [3H] vasopressin, human V2R membranes; type: binding
T2 construct: expressed in transfected cells; host or cells: HEK293 cells, transient (jetPRIME); for the reporter assay co-transfected with pGL4.29 [luc2P/CRE/Hygro]
T2 sequence (P30518 whole entry): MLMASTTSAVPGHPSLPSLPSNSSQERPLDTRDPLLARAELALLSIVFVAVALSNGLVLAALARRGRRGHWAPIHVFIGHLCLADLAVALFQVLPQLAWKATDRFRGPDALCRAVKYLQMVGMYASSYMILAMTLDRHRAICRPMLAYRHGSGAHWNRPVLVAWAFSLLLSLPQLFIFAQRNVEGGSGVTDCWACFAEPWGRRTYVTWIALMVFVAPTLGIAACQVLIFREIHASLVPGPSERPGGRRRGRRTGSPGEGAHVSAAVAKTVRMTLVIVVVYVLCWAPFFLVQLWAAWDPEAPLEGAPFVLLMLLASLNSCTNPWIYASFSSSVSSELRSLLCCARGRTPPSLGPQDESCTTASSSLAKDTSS
Description: (§1) Chinese Hamster Ovary cells (CHO) were cultured in Ham’s F12 media supplemented with 10% fetal bovine serum (FBS), 1% PenStrep (all from Sigma-Aldrich, Munich, Germany) and grown in a humidified atmosphere of 37 °C, 5% CO2 and passaged on average twice per week. CHO cells were used for expression of inotocin receptor (L. niger, T. castaneum). Cell transfections were carried out with 10 μg of plasmid using Lipofectamine LTX (Life Technologies, Invitrogen, Carlsbad, USA) for invertebrate receptors. For the expression of human OTR, V1aR, V1bR and V2R, HEK293 cells were transfected using jetPRIME (Polyplus Transfections, Illkirch-Graffenstaden, France)[35]. Cells were maintained in DMEM (GE Healthcare Hy Clone™, Logan, USA) supplemented with 10% FBS and 1% PenStrep.
(§2) Unbound ligands were washed off (Skatron Cell Harvester). […] Bindings of [^3H] AVP and [^3H] […] Bindings of [^3H] inotocin to membranes (10 μg) expressing INTR from L. niger, or [^3H] inotocin to membranes (10 μg) expressing INTR from T. castaneum, respectively, were assayed for displacement with an excess of inotocin (10^−11 to 10^−5 M) (n ≥ 3, except where otherwise stated). […] Specific binding was calculated by subtracting the non-specific binding from the total binding. IC50 values were obtained by fitting the data to a three-parameter logistic Hill equation. Inhibition constants (Ki) were calculated from IC50 using the method by Cheng and Prusoff[65].

[3] = molecular target: T3, human OTR (Homo sapiens, UniProt P30559); experiment: Radioligand displacement of [3H] oxytocin, human OTR membranes; type: binding; conditions: read-out: Affinity (Ki)
T3 construct: expressed in transfected cells; host or cells: HEK293 cells, transient (jetPRIME)
T3 sequence (P30559 1-389): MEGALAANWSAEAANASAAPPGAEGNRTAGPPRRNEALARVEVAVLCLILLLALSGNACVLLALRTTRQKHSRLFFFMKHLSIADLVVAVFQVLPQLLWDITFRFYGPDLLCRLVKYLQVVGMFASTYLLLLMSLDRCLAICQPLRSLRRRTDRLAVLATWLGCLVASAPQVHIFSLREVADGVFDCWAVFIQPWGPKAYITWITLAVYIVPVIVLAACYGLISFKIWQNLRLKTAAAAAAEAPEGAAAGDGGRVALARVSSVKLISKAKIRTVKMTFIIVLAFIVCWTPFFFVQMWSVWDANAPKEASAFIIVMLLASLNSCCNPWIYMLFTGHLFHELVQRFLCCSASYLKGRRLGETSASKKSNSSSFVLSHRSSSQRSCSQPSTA
Description: as §1
as §2, with “IC50 values were obtained by fitting the data to a three-parameter logistic Hill equation.” left out

[4] = molecular target: T1, human V1bR; experiment: cell-based
Description: as §1
(§3) Activation of Gq-signalling via the human V1aR, V1bR and OTR, as well as the insect INTR was measured by inositol-1-phosphate (IP1) quantification using an IP1 Tb kit (Cisbio, Codolet, France). Transfected cells were seeded in 96 well-plates, with a cell density of 10^4 cells per well. Cell culture media was removed from the wells after 6 h and 70 μL of peptide of interest, prepared in IP1 1X Stimulation Buffer at the desired concentrations, was added. Samples were measured in technical triplicates. After 1 h incubation at 37 °C, 15 μL of IP1-d2 was added, following the same volume of Ab-cryptate. […] Activation of Gs-signalling via the human V2R was measured using a luciferase reporter assay. HEK293 transiently expressing V2R were co-transfected with the pGL4.29 [luc2P/CRE/Hygro] (Promega, Mannheim, Germany) plasmid. […] For cell-based functional assays (luciferase and IP1), subtraction of the negative control (stimulation buffer) was applied to all data set. The normalization was performed to the highest value of the positive control from at least 4 independent experiments. Data were fitted using GraphPad Prism 5.0 with an equation for non-linear regression (sigmoidal, slope fit of 1). Values are reported as mean ± SEM. For Schild regression analysis, each concentration-ratio (r) was calculated as the agonist EC50 in the presence of a respective concentration of [D-Arg8]-inotocin by the EC50 of the agonist alone.

[5] = molecular target: T2, human V2R; experiment: cell-based; conditions: luciferase reporter, CRE response element; mean ± SEM; read-out: Potency (EC50)
Description: as §1, §3

[6] = molecular target: T3, human OTR; experiment: IP1 accumulation, HEK293 cells expressing human OTR; type: cell-based
Description: as §1, §3

[7] = type: in vitro ADME, human; conditions: for half-life: 100 μM peptide, read-out: half-life t½ (converted); for degradation in human serum: within 24 h
Description: Serum stability was tested as described previously. Briefly, serum was obtained prepared from human blood (self-donor), allowed to coagulate for 2 h at 23 °C and centrifuged at 12,000 × g for 10 min. Peptides (100 μM) were incubated in serum for 2, 4, 6, 8, 10 and 24 h at 37 °C. To evaluate peptide stability, aliquots ([…]) were analysed via RP-HPLC (UltiMate 3000, Thermo Scientific Dionex, Vienna, Austria) on a C18 column (Phenomenex Kinetex, Aschaffenburg, Germany) with a 3% gradient using 0.1% (v/v) TFA and 90/10/0.1% (v/v/v) acetonitrile/H2O/TFA as eluents. Half-life (t1/2) of peptides was calculated using non-linear regression analysis using Graph Pad Prism.
Supplementary Fig. 5. Human serum stability of the inotocin D-analogue. [D-Arg 8 ]-inotocin […]
serum and their stability monitored via HPLC over a time course of 2, 4, 6, 8, 10 and 24 h. Melittin, a haemolytic peptide from the bee venom was used as a positive control f or peptide degradation.
Area under the curves of samples was determined and correlated to the negative control analyte, which was dissolved in 0.1% TFA; thus they were not subject to degradation and were assumed therefore as 100%. Peptide stability was expressed in percentage of peptide remaining.
(1 picture or pasted object on this page, not shown here)

[8] = molecular target: T4, human V1aR (Homo sapiens, UniProt P37288); experiment: Radioligand displacement of [3H] vasopressin, human V1aR membranes; type: binding; parameters: expressed in transfected cells; host or cells: HEK293 cells, transient (jetPRIME)
T4 sequence (P37288 whole entry): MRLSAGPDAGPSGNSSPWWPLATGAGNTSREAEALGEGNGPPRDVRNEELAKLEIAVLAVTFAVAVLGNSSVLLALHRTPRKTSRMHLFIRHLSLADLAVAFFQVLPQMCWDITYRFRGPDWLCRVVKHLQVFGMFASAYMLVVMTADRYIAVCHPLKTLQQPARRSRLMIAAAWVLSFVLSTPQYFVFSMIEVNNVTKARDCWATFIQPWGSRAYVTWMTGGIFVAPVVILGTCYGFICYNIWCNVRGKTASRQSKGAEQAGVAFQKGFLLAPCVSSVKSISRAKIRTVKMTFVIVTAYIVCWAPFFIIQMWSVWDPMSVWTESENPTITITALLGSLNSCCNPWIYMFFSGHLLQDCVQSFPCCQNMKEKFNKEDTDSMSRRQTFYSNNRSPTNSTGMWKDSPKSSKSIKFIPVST
Description: as §1
as §2, with “IC50 values were obtained by fitting the data to a three-parameter logistic Hill equation.” left out

[9] = molecular target: T4, human V1aR; experiment: IP1 accumulation, HEK293 cells expressing human V1aR; type: cell-based; parameters: expressed in transfected cells; host or cells: HEK293 cells, transient (jetPRIME)
Description: as §1, §3

[10] = molecular target: inotocin R (L. niger); experiment: Radioligand displacement of [3H] inotocin, inotocin receptor from L. niger; parameters: species or system Lasius niger; conditions: saturation binding experiments
Description: as §1
as §2, with “IC50 values were obtained by fitting the data to a three-parameter logistic Hill equation.” left out

[11] = molecular target: inotocin R (T. castaneum); experiment: Radioligand displacement of [3H] inotocin, inotocin receptor from T. castaneum; parameters: species or system Tribolium castaneum; conditions: saturation binding experiments
Description: as §1
as §2, with “IC50 values were obtained by fitting the data to a three-parameter logistic Hill equation.” left out

[12] = molecular target: T4, human V1aR; experiment: cell-based
[13] = Affinity (Ki), displacement of [3H] vasopressin, mean ± SEM
[14] = IP1 accumulation, mean ± SEM, read-out: Potency (EC50)
[15] = IP1 response, human OTR, read-out: EC50
[16] = IP1 response, human V1aR, read-out: EC50

| Molecule | Ki [1, 13] [nM] | Ki [2, 13] [nM] | Ki [3] [nM] | EC50 [4, 14] [nM] | EC50 [5] [nM] | EC50 [6, 14] [nM] | EC50 [6, 15] [nM] | half-life ([7]; human serum, 37 °C) [h] | degradation in human serum [7] | Ki ([8]; read-out: Affinity (Ki)) [nM] | EC50 [9, 14] [nM] | EC50 [9, 16] [nM] | Kd [10] [nM] | Kd [11] [nM] | Ki ([1]; Ki, no significant displacement, human V1b receptor) [nM] | Ki ([2]; Ki, no significant displacement, human V2 receptor) [nM] | EC50 ([4]; IP1 response, human V1bR, read-out: EC50) [nM] | remaining at 24 h ([7]; human serum, 37 °C, 24 h, read-out: peptide still present after 24 h) [%] | Kb [12] [nM] | binding selectivity ([8]; human V1aR over OTR, V1bR and V2R) |
| --- | --- | --- | --- | --- | --- | --- | --- | --- | --- | --- | --- | --- | --- | --- | --- | --- | --- | --- | --- | --- |
| CC[C@H](C)[C@@H]1NC(=O)[C@H](CC(C)C)NC(=O)[C@@H](N)CSSC[C@@H](C(=O)N2CCC[C@H]2C(=O)N[C@@H](CCCNC(=N)N)C(=O)NCC(N)=O)NC(=O)[C@H](CC(N)=O)NC(=O)[C@H]([C@@H](C)O)NC1=O [inotocin] (H-CLITNCPRG-NH2; disulfide 1-6) | 12 ± 6.5 | > 100000 | 62 ± 37 | 56 ± 9.7 | > 1500 | > 100000 | > 10000 | 2.8 | fully degraded | 11 ± 4.4 | > 100000 | > 10000 | – | – | – | – | – | – | – | – |
| NC(=O)CC[C@@H]1NC(=O)[C@H](Cc2ccccc2)NC(=O)[C@H](Cc2ccc(O)cc2)NC(=O)[C@@H](N)CSSC[C@@H](C(=O)N2CCC[C@H]2C(=O)N[C@@H](CCCN=C(N)N)C(=O)NCC(N)=O)NC(=O)[C@H](CC(N)=O)NC1=O [vasopressin, arginine-vasopressin] | – | – | – | – | – | – | – | 1 | fully degraded | – | – | – | – | – | – | – | – | – | – | – |
| [^3H] inotocin: tritiated inotocin radioligand, C[4,5-3H]LITNCPGR-NH2 as printed (tritium label; N-terminal Cys; C-terminal amide) | – | – | – | – | – | – | – | – | – | – | – | – | 0.9 | 2.7 | – | – | – | – | – | – |
| CC[C@H](C)[C@@H]1NC(=O)[C@H](CC(C)C)NC(=O)[C@@H](N)CSSC[C@@H](C(=O)N2CCC[C@H]2C(=O)N[C@H](CCCNC(=N)N)C(=O)NCC(N)=O)NC(=O)[C@H](CC(N)=O)NC(=O)[C@H]([C@@H](C)O)NC1=O [[D-Arg8]-inotocin] (H-CLITNCP[dR]G-NH2; disulfide 1-6) | > 100000 | > 100000 | > 4000 | > 100000 | 164 ± 26 | > 100000 | > 10000 | – | – | – | > 100000 | > 10000 | – | – | > 4000 | > 4000 | > 10000 | > 70 | 15.8 | 3,000 fold |

Source: publication PMC5286520 (Scientific Reports, 2017)
